Assay results published in BindingDB's records for doi:10.1016/j.bmcl.2018.08.004 (Beijing Institute of Pharmacology and Toxicology, 2018).
pEC50: −log10 of the molar value. Bridge positions count the residues as written; N and C are the ends. Square brackets hold non-standard residues; d marks the D form. Peptide text beside a SMILES is read from it. Phe(4-Br) = N[C@@H](Cc1ccc(Br)cc1)C(=O)O; Phe(4-Cl) = N[C@@H](Cc1ccc(Cl)cc1)C(=O)O; 1Nal = N[C@@H](Cc1cccc2ccccc12)C(=O)O; 2Nal = N[C@@H](Cc1ccc2ccccc2c1)C(=O)O; Phe(2-F) = N[C@@H](Cc1ccccc1F)C(=O)O; Cit = NC(=O)NCCC[C@H](N)C(=O)O; NMeA = CN[C@@H](C)C(=O)O; Sar = CNCC(=O)O

assay: Agonist activity at EPO receptor in human TF1 cells assessed as induction of cell proliferation after 48 hrs by MTT assay

| Structure (SMILES) | pEC50 |
| --- | --- |
| CC[C@H](C)[C@@H]1NC(=O)[C@@H]2CCCN2C(=O)CNC(=O)[C@H](CCSC)NC(=O)[C@H](Cc2cnc[nH]2)NC(=O)[C@@H](NC(=O)[C@H](C)NC(=O)[C@H](Cc2ccc(O)cc2)NC(=O)[C@H](CC(C)C)NC(=O)CNC(=O)CNC(C)=O)CSSC[C@@H](C(=O)N[C@@H](CCC(N)=O)C(=O)N2CCC[C@H]2C(=O)N[C@@H](CC(C)C)C(=O)N[C@@H](CCCNC(=N)N)C(=O)N(C)CC(=O)N[C@@H](CCCCN)C(N)=O)NC(=O)[C@H](C(C)C)NC(=O)[C@H](Cc2ccc(Br)cc2)NC(=O)[C@H]([C@@H](C)O)NC1=O (Ac-GGLYACHMGPIT[Phe(4-Br)]VCQPLR[Sar]K-NH2; disulfide 6-15) | 6.27 |
| CC[C@H](C)[C@@H]1NC(=O)[C@@H]2CCCN2C(=O)CNC(=O)[C@H](CCSC)NC(=O)[C@H](Cc2cnc[nH]2)NC(=O)[C@@H](NC(=O)[C@H](C)NC(=O)[C@H](Cc2ccc(O)cc2)NC(=O)[C@H](CC(C)C)NC(=O)CNC(=O)CNC(C)=O)CSSC[C@@H](C(=O)N[C@@H](CCC(N)=O)C(=O)N(C)CC(=O)N[C@@H](CC(C)C)C(=O)N[C@@H](CCCNC(=N)N)C(=O)N(C)CC(=O)N[C@@H](CCCCN)C(N)=O)NC(=O)[C@H](C(C)C)NC(=O)[C@H](Cc2cccc3ccccc23)NC(=O)[C@H]([C@@H](C)O)NC1=O (Ac-GGLYACHMGPIT[1Nal]VCQ[Sar]LR[Sar]K-NH2; disulfide 6-15) | 7.38 |
| CC[C@H](C)[C@@H]1NC(=O)[C@@H]2CCCN2C(=O)CNC(=O)[C@H](CCSC)NC(=O)[C@H](Cc2cnc[nH]2)NC(=O)[C@@H](NC(=O)[C@H](C)NC(=O)[C@H](Cc2ccc(O)cc2)NC(=O)[C@H](CC(C)C)NC(=O)CNC(=O)CNC(C)=O)CSSC[C@@H](C(=O)N[C@@H](CCC(N)=O)C(=O)N2CCC[C@H]2C(=O)N[C@@H](CC(C)C)C(=O)N[C@@H](CCCNC(=N)N)C(=O)N(C)CC(=O)N[C@@H](CCCCN)C(N)=O)NC(=O)[C@H](C(C)C)NC(=O)[C@H](Cc2cccc3ccccc23)NC(=O)[C@H]([C@@H](C)O)NC1=O | 7.96 |
| CC[C@H](C)[C@@H]1NC(=O)[C@@H]2CCCN2C(=O)CNC(=O)[C@H](CCSC)NC(=O)[C@H](Cc2cnc[nH]2)NC(=O)[C@@H](NC(=O)[C@H](C)NC(=O)[C@H](Cc2ccc(O)cc2)NC(=O)[C@H](CC(C)C)NC(=O)CNC(=O)CNC(C)=O)CSSC[C@@H](C(=O)N[C@@H](CCC(N)=O)C(=O)N2CCC[C@H]2C(=O)N[C@@H](CC(C)C)C(=O)N[C@@H](CCCNC(=N)N)C(=O)N(C)CC(=O)N[C@@H](CCCCN)C(N)=O)NC(=O)[C@H](C(C)C)NC(=O)[C@H](Cc2ccccc2F)NC(=O)[C@H]([C@@H](C)O)NC1=O (Ac-GGLYACHMGPIT[Phe(2-F)]VCQPLR[Sar]K-NH2; disulfide 6-15) | 6.27 |
| CC[C@H](C)[C@@H]1NC(=O)[C@@H]2CCCN2C(=O)CNC(=O)[C@H](CCSC)NC(=O)[C@H](Cc2cnc[nH]2)NC(=O)[C@@H](NC(=O)[C@H](C)NC(=O)[C@H](Cc2ccc(O)cc2)NC(=O)[C@H](CC(C)C)NC(=O)CNC(=O)CNC(C)=O)CSSC[C@@H](C(=O)N[C@@H](CCC(N)=O)C(=O)N2CCC[C@H]2C(=O)N[C@@H](CC(C)C)C(=O)N[C@@H](CCCNC(N)=O)C(=O)N(C)CC(=O)N[C@@H](CCCCN)C(N)=O)NC(=O)[C@H](C(C)C)NC(=O)[C@H](Cc2cccc3ccccc23)NC(=O)[C@H]([C@@H](C)O)NC1=O (Ac-GGLYACHMGPIT[1Nal]VCQPL[Cit][Sar]K-NH2; disulfide 6-15) | 7.51 |
| CC[C@H](C)[C@@H]1NC(=O)[C@H](C)N(C)C(=O)CNC(=O)[C@H](CCSC)NC(=O)[C@H](Cc2cnc[nH]2)NC(=O)[C@@H](NC(=O)[C@H](C)NC(=O)[C@H](Cc2ccc(O)cc2)NC(=O)[C@H](CC(C)C)NC(=O)CNC(=O)CNC(C)=O)CSSC[C@@H](C(=O)N[C@@H](CCC(N)=O)C(=O)N2CCC[C@H]2C(=O)N[C@@H](CC(C)C)C(=O)N[C@@H](CCCNC(=N)N)C(=O)N(C)CC(=O)N[C@@H](CCCCN)C(N)=O)NC(=O)[C@H](C(C)C)NC(=O)[C@H](Cc2cccc3ccccc23)NC(=O)[C@H]([C@@H](C)O)NC1=O (Ac-GGLYACHMG[NMeA]IT[1Nal]VCQPLR[Sar]K-NH2; disulfide 6-15) | 7.59 |

Further molecules by rising pEC50, results first:

| pEC50 | Structure (SMILES) |
| --- | --- |
| 6.27 | CC[C@H](C)[C@@H]1NC(=O)[C@@H]2CCCN2C(=O)CNC(=O)[C@H](CCSC)NC(=O)[C@H](Cc2cnc[nH]2)NC(=O)[C@@H](NC(=O)[C@H](C)NC(=O)[C@H](Cc2ccc(O)cc2)NC(=O)[C@H](CC(C)C)NC(=O)CNC(=O)CNC(C)=O)CSSC[C@@H](C(=O)N[C@@H](CCC(N)=O)C(=O)N2CCC[C@H]2C(=O)N[C@@H](CC(C)C)C(=O)N[C@@H](CCCNC(=N)N)C(=O)N(C)CC(=O)N[C@@H](CCCCN)C(N)=O)NC(=O)[C@H](C(C)C)NC(=O)[C@H](Cc2ccc3ccccc3c2)NC(=O)[C@H]([C@@H](C)O)NC1=O (Ac-GGLYACHMGPIT[2Nal]VCQPLR[Sar]K-NH2; disulfide 6-15) |
| 6.62 | CC[C@H](C)[C@@H]1NC(=O)[C@@H]2CCCN2C(=O)CNC(=O)[C@H](CCSC)NC(=O)[C@H](Cc2cnc[nH]2)NC(=O)[C@@H](NC(=O)[C@H](C)NC(=O)[C@H](Cc2ccc(O)cc2)NC(=O)[C@H](CC(C)C)NC(=O)CNC(=O)CNC(C)=O)CSSC[C@@H](C(=O)N[C@@H](CCC(N)=O)C(=O)N2CCC[C@H]2C(=O)N[C@@H](CC(C)C)C(=O)N[C@@H](CCCNC(=N)N)C(=O)N(C)CC(=O)N[C@@H](CCCCN)C(N)=O)NC(=O)[C@H](C(C)C)NC(=O)[C@H](Cc2ccc(Cl)cc2)NC(=O)[C@H]([C@@H](C)O)NC1=O (Ac-GGLYACHMGPIT[Phe(4-Cl)]VCQPLR[Sar]K-NH2; disulfide 6-15) |
| 7.51 | CC[C@H](C)[C@@H]1NC(=O)CN(C)C(=O)CNC(=O)[C@H](CCSC)NC(=O)[C@H](Cc2cnc[nH]2)NC(=O)[C@@H](NC(=O)[C@H](C)NC(=O)[C@H](Cc2ccc(O)cc2)NC(=O)[C@H](CC(C)C)NC(=O)CNC(=O)CNC(C)=O)CSSC[C@@H](C(=O)N[C@@H](CCC(N)=O)C(=O)N2CCC[C@H]2C(=O)N[C@@H](CC(C)C)C(=O)N[C@@H](CCCNC(=N)N)C(=O)N(C)CC(=O)N[C@@H](CCCCN)C(N)=O)NC(=O)[C@H](C(C)C)NC(=O)[C@H](Cc2cccc3ccccc23)NC(=O)[C@H]([C@@H](C)O)NC1=O (Ac-GGLYACHMG[Sar]IT[1Nal]VCQPLR[Sar]K-NH2; disulfide 6-15) |
| 7.92 | CC[C@H](C)[C@@H]1NC(=O)[C@@H]2CCCN2C(=O)CNC(=O)[C@H](CCSC)NC(=O)[C@H](Cc2cnc[nH]2)NC(=O)[C@@H](NC(=O)[C@H](C)NC(=O)[C@H](Cc2ccc(O)cc2)NC(=O)[C@H](CC(C)C)NC(=O)CNC(=O)CNC(C)=O)CSSC[C@@H](C(=O)N[C@@H](CCC(N)=O)C(=O)N(C)[C@@H](C)C(=O)N[C@@H](CC(C)C)C(=O)N[C@@H](CCCNC(=N)N)C(=O)N(C)CC(=O)N[C@@H](CCCCN)C(N)=O)NC(=O)[C@H](C(C)C)NC(=O)[C@H](Cc2cccc3ccccc23)NC(=O)[C@H]([C@@H](C)O)NC1=O (Ac-GGLYACHMGPIT[1Nal]VCQ[NMeA]LR[Sar]K-NH2; disulfide 6-15) |
